{"source": "paper PMC4979471", "about": "(Cell Death Discovery, 2015)", "experiment_in_all_cases": "Kinase selectivity, P33-radiolabeled assay", "assay_type_in_all_cases": "biochemical", "conditions_in_all_cases": "10 μM ATP", "key": {"JNK3": {"biological_target": "T1, JNK3 (Homo sapiens, UniProt P53779)", "T1 construct": "purchased Reaction Biology Corp", "T1 sequence (P53779 whole entry)": "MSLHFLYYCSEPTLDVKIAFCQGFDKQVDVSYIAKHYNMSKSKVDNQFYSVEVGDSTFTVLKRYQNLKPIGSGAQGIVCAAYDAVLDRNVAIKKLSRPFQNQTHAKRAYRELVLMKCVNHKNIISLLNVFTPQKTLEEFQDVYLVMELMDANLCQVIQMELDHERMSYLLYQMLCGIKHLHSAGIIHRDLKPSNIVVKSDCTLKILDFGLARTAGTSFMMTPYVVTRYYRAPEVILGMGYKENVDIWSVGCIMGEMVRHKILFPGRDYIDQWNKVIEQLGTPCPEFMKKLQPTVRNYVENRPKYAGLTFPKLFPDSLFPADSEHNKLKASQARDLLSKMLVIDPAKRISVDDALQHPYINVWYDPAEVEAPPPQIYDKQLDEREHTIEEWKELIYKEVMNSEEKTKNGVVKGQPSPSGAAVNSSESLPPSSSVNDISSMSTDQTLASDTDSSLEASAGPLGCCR", "outline": "(§1)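 Reactions contained 10 μM ATP and 10 μM test compound, each run in duplicate. Kinase activity is expressed as a percentage of DMSO-treated controls.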"}, "ABL2/ARG": {"biological_target": "T2, ABL2/ARG (Homo sapiens, UniProt P42684)", "T2 construct": "purchased Reaction Biology Corp", "T2 sequence (P42684 whole entry)": "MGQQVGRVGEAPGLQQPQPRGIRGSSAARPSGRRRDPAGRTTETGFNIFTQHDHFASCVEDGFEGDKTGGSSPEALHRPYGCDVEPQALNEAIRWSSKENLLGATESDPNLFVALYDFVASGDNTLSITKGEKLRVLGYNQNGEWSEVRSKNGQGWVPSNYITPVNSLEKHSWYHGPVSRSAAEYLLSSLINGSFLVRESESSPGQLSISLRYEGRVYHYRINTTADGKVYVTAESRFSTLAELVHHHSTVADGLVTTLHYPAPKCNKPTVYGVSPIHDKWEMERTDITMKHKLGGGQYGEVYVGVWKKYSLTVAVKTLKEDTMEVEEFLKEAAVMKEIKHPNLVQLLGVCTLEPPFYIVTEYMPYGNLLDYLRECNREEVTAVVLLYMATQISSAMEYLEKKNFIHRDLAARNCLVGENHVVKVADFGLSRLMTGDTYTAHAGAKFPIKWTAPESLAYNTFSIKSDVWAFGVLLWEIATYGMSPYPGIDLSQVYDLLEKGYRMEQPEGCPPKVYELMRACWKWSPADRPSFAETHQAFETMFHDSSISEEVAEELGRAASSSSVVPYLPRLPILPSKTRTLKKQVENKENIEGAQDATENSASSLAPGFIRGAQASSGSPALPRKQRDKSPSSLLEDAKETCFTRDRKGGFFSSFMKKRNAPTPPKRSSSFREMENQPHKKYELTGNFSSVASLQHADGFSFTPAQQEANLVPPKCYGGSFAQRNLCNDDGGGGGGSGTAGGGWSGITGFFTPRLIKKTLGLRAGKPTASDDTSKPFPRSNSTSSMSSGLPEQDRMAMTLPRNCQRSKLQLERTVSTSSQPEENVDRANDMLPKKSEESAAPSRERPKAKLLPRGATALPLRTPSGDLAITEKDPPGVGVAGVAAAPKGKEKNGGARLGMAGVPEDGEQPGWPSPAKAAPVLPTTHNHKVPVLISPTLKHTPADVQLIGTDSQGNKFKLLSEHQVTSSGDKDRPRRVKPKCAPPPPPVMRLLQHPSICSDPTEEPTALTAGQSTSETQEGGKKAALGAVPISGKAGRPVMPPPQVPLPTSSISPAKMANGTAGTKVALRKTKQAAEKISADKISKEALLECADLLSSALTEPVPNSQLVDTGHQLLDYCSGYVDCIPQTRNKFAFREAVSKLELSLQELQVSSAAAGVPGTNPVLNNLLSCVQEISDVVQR", "outline": "as §1"}, "PRKX": {"biological_target": "T3, PRKX (Homo sapiens, UniProt P51817)", "T3 construct": "purchased Reaction Biology Corp", "T3 sequence (P51817 1-358)": "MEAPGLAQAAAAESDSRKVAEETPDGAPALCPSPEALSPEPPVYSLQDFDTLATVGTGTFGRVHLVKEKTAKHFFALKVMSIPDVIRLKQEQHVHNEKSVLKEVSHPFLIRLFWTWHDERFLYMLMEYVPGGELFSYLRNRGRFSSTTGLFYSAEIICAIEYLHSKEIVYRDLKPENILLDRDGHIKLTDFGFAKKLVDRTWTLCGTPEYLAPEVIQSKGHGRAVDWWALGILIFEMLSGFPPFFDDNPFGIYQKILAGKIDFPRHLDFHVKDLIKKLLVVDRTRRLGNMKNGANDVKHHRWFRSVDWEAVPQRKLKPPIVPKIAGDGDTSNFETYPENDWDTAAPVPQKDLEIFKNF", "outline": "as §1"}, "JNK1": {"biological_target": "T4, JNK1 (Homo sapiens, UniProt P45983)", "T4 construct": "purchased Reaction Biology Corp", "outline": "as §1"}, "GRK7": {"biological_target": "T5, GRK7 (Homo sapiens, UniProt Q8WTQ7)", "T5 construct": "purchased Reaction Biology Corp", "T5 sequence (Q8WTQ7 1-553)": "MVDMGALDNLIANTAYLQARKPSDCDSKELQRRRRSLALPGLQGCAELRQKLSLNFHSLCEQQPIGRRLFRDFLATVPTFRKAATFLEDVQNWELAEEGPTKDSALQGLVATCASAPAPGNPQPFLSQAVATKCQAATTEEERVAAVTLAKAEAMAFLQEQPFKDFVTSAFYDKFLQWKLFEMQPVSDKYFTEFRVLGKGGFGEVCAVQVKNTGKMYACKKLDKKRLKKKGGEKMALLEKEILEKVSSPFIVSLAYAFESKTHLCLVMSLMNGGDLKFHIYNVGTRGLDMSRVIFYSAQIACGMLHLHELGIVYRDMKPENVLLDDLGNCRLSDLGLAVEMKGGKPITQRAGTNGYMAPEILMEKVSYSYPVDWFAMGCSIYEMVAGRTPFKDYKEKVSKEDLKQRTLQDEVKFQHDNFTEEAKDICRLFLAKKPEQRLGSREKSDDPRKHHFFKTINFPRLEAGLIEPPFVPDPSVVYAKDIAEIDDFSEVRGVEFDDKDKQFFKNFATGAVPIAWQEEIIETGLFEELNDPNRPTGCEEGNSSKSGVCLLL", "outline": "as §1"}, "DAPK2": {"biological_target": "T6, DAPK2 (Homo sapiens, UniProt Q9UIK4)", "T6 construct": "purchased Reaction Biology Corp", "T6 sequence (Q9UIK4 whole entry)": "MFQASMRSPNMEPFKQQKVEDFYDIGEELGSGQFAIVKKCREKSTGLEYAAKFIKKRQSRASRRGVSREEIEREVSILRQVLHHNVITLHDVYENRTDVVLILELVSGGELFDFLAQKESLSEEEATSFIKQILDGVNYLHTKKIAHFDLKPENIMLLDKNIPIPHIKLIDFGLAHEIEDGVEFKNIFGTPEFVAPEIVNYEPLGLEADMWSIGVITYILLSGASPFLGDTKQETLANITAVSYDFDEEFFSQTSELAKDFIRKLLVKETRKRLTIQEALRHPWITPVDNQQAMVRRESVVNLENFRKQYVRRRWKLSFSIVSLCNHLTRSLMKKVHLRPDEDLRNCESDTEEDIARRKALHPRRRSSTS", "outline": "as §1"}, "PIM3": {"biological_target": "T7, PIM3 (Homo sapiens, UniProt Q86V86)", "T7 construct": "purchased Reaction Biology Corp", "outline": "as §1"}, "RON/MST1R": {"biological_target": "T8, RON/MST1R (Homo sapiens, UniProt Q04912)", "T8 construct": "purchased Reaction Biology Corp", "outline": "as §1"}, "TEC": {"biological_target": "T9, TEC (Homo sapiens, UniProt P42680)", "T9 construct": "purchased Reaction Biology Corp", "T9 sequence (P42680 1-631)": "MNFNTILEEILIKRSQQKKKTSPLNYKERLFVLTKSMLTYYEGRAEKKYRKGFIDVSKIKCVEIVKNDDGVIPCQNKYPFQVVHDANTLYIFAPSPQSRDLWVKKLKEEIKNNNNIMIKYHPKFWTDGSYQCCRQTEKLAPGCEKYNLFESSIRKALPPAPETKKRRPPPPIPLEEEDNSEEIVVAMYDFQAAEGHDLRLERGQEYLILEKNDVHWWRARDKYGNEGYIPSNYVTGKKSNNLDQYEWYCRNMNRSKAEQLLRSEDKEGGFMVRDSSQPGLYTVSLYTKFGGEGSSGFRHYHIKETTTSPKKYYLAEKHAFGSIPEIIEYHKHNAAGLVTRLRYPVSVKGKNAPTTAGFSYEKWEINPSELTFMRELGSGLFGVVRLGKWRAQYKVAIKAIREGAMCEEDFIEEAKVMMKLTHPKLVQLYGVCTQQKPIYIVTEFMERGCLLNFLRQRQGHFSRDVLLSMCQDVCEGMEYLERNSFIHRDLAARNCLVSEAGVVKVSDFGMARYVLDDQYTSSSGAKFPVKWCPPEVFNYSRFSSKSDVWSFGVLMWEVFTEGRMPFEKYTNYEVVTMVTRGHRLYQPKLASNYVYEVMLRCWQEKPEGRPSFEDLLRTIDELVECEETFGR", "outline": "as §1"}, "EPHA2": {"biological_target": "T10, EPHA2 (Homo sapiens, UniProt P29317)", "T10 construct": "purchased Reaction Biology Corp", "outline": "as §1"}, "MLCK/MYLK": {"biological_target": "T11, MLCK/MYLK (Homo sapiens, UniProt Q15746)", "T11 construct": "purchased Reaction Biology Corp", "outline": "as §1"}, "EPHA5": {"biological_target": "T12, EPHA5 (Homo sapiens, UniProt P54756)", "T12 construct": "purchased Reaction Biology Corp", "T12 sequence (P54756 25-1037)": "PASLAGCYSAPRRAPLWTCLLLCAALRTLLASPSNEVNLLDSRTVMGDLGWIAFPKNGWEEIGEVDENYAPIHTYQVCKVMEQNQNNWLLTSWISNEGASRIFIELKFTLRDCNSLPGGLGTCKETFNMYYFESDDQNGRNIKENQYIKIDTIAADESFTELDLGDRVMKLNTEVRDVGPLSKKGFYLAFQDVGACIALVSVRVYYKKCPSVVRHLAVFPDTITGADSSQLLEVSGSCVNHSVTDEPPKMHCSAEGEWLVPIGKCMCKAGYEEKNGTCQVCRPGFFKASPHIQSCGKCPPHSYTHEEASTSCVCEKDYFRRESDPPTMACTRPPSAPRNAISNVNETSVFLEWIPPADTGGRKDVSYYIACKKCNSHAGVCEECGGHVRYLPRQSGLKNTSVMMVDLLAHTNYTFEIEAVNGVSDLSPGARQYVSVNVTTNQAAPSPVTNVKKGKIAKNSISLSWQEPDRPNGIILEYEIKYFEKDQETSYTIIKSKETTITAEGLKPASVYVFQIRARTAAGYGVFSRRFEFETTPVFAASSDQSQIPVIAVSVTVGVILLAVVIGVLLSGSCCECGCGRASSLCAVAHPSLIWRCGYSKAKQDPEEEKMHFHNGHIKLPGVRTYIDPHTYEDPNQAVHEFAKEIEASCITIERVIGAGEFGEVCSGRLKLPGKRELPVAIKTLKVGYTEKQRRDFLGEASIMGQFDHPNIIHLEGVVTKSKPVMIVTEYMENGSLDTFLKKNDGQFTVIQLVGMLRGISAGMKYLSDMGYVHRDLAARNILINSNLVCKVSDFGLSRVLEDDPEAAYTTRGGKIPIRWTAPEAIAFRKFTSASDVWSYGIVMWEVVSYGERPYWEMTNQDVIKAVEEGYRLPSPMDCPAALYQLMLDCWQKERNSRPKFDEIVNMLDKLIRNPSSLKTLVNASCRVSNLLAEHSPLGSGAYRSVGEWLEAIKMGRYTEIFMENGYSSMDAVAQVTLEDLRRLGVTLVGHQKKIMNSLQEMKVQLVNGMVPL", "outline": "as §1"}, "PYK2": {"biological_target": "T13, PYK2 (Homo sapiens, UniProt Q14289)", "T13 construct": "purchased Reaction Biology Corp", "outline": "as §1"}, "CAMKK1": {"biological_target": "T14, CAMKK1 (Homo sapiens, UniProt Q8N5S9)", "T14 construct": "purchased Reaction Biology Corp", "T14 sequence (Q8N5S9 whole entry)": "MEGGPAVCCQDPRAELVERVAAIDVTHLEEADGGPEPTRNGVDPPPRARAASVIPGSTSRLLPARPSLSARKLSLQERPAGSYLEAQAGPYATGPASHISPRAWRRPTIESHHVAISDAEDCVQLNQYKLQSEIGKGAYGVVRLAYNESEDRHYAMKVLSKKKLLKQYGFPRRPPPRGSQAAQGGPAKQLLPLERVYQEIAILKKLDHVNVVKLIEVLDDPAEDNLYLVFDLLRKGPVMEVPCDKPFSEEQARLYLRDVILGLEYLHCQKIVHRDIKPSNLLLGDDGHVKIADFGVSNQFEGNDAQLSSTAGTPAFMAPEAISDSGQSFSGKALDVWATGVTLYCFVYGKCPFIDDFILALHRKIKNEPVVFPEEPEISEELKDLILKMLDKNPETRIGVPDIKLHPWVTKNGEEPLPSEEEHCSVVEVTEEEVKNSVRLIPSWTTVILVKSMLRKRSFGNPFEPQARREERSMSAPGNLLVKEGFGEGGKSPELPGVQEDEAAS", "outline": "as §1"}, "MLK2/MAP3K10": {"biological_target": "T15, MLK2/MAP3K10 (Homo sapiens, UniProt Q02779)", "T15 construct": "purchased Reaction Biology Corp", "T15 sequence (Q02779 whole entry)": "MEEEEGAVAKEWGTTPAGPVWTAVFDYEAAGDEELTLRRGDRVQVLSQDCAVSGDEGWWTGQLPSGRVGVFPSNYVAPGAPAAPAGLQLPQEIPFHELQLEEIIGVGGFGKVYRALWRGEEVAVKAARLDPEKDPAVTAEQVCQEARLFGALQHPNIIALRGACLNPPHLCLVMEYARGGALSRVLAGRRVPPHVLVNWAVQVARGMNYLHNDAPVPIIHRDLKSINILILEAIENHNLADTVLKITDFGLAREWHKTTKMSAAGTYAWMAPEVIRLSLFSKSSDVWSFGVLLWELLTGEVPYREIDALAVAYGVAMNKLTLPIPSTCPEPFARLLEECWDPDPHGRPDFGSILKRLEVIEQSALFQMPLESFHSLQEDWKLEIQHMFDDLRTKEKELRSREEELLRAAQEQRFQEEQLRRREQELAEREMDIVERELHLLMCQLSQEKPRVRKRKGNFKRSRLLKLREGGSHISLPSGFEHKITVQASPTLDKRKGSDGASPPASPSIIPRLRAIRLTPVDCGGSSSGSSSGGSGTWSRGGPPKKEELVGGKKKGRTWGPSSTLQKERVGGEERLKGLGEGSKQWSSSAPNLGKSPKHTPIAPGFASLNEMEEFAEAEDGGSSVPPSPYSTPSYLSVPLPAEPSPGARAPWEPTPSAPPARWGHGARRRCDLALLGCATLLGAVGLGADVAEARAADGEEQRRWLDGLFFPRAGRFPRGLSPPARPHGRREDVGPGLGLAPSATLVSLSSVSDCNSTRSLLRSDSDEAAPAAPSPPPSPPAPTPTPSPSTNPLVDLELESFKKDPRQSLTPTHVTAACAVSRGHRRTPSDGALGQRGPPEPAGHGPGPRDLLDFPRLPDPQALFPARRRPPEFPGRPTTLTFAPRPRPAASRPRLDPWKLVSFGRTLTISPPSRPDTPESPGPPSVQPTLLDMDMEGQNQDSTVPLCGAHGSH", "outline": "as §1"}, "[1]": {"conditions": "read-out: % Enzyme Activity (relative to DMSO controls) AVG"}, "[2]": {"conditions": "read-out: % Enzyme Activity (relative to DMSO controls) Data 1"}, "[3]": {"conditions": "read-out: % Enzyme Activity (relative to DMSO controls) Data 2"}}, "note": "Where two headings read alike, the source gives them in different places."}
{"smiles": "CC(C)(C)C(=O)N1N=CC[C@H]1c1ccccc1", "note": "[GSK′963]", "values": [{"measurement": "remaining activity at 10 µM", "setting": "JNK3; [1]", "value": 100, "unit": "%"}, {"measurement": "remaining activity at 10 µM", "setting": "JNK3; [2]", "value": 101, "unit": "%"}, {"measurement": "remaining activity at 10 µM", "setting": "JNK3; [3]", "value": 100, "unit": "%"}, {"measurement": "remaining activity at 10 µM", "setting": "ABL2/ARG; [1]", "value": 83, "unit": "%"}, {"measurement": "remaining activity at 10 µM", "setting": "ABL2/ARG; [2]", "value": 84.7, "unit": "%"}, {"measurement": "remaining activity at 10 µM", "setting": "ABL2/ARG; [3]", "value": 81.4, "unit": "%"}, {"measurement": "remaining activity at 10 µM", "setting": "PRKX; [1]", "value": 107, "unit": "%"}, {"measurement": "remaining activity at 10 µM", "setting": "PRKX; [2]", "value": 106, "unit": "%"}, {"measurement": "remaining activity at 10 µM", "setting": "PRKX; [3]", "value": 107, "unit": "%"}, {"measurement": "remaining activity at 10 µM", "setting": "JNK1; [1]", "value": 97.1, "unit": "%"}, {"measurement": "remaining activity at 10 µM", "setting": "JNK1; [2]", "value": 97.3, "unit": "%"}, {"measurement": "remaining activity at 10 µM", "setting": "JNK1; [3]", "value": 97, "unit": "%"}, {"measurement": "remaining activity at 10 µM", "setting": "GRK7; [1]", "value": 90.3, "unit": "%"}, {"measurement": "remaining activity at 10 µM", "setting": "GRK7; [2]", "value": 88.3, "unit": "%"}, {"measurement": "remaining activity at 10 µM", "setting": "GRK7; [3]", "value": 92.4, "unit": "%"}, {"measurement": "remaining activity at 10 µM", "setting": "DAPK2; [1]", "value": 105, "unit": "%"}, {"measurement": "remaining activity at 10 µM", "setting": "DAPK2; [2]", "value": 104, "unit": "%"}, {"measurement": "remaining activity at 10 µM", "setting": "DAPK2; [3]", "value": 105, "unit": "%"}, {"measurement": "remaining activity at 10 µM", "setting": "PIM3; [1]", "value": 116, "unit": "%"}, {"measurement": "remaining activity at 10 µM", "setting": "PIM3; [2]", "value": 119, "unit": "%"}, {"measurement": "remaining activity at 10 µM", "setting": "PIM3; [3]", "value": 113, "unit": "%"}, {"measurement": "remaining activity at 10 µM", "setting": "RON/MST1R; [1]", "value": 104, "unit": "%"}, {"measurement": "remaining activity at 10 µM", "setting": "RON/MST1R; [2]", "value": 106, "unit": "%"}, {"measurement": "remaining activity at 10 µM", "setting": "RON/MST1R; [3]", "value": 102, "unit": "%"}, {"measurement": "remaining activity at 10 µM", "setting": "TEC; [1]", "value": 104, "unit": "%"}, {"measurement": "remaining activity at 10 µM", "setting": "TEC; [2]", "value": 98.7, "unit": "%"}, {"measurement": "remaining activity at 10 µM", "setting": "TEC; [3]", "value": 109, "unit": "%"}, {"measurement": "remaining activity at 10 µM", "setting": "EPHA2; [1]", "value": 96.3, "unit": "%"}, {"measurement": "remaining activity at 10 µM", "setting": "EPHA2; [2]", "value": 95.6, "unit": "%"}, {"measurement": "remaining activity at 10 µM", "setting": "EPHA2; [3]", "value": 97, "unit": "%"}, {"measurement": "remaining activity at 10 µM", "setting": "MLCK/MYLK; [1]", "value": 96.1, "unit": "%"}, {"measurement": "remaining activity at 10 µM", "setting": "MLCK/MYLK; [2]", "value": 97.1, "unit": "%"}, {"measurement": "remaining activity at 10 µM", "setting": "MLCK/MYLK; [3]", "value": 95.2, "unit": "%"}, {"measurement": "remaining activity at 10 µM", "setting": "EPHA5; [1]", "value": 107, "unit": "%"}, {"measurement": "remaining activity at 10 µM", "setting": "EPHA5; [2]", "value": 105, "unit": "%"}, {"measurement": "remaining activity at 10 µM", "setting": "EPHA5; [3]", "value": 108, "unit": "%"}, {"measurement": "remaining activity at 10 µM", "setting": "PYK2; [1]", "value": 103, "unit": "%"}, {"measurement": "remaining activity at 10 µM", "setting": "PYK2; [2]", "value": 103, "unit": "%"}, {"measurement": "remaining activity at 10 µM", "setting": "PYK2; [3]", "value": 103, "unit": "%"}, {"measurement": "remaining activity at 10 µM", "setting": "CAMKK1; [1]", "value": 103, "unit": "%"}, {"measurement": "remaining activity at 10 µM", "setting": "CAMKK1; [2]", "value": 105, "unit": "%"}, {"measurement": "remaining activity at 10 µM", "setting": "CAMKK1; [3]", "value": 101, "unit": "%"}, {"measurement": "remaining activity at 10 µM", "setting": "MLK2/MAP3K10; [1]", "value": 99.4, "unit": "%"}, {"measurement": "remaining activity at 10 µM", "setting": "MLK2/MAP3K10; [2]", "value": 98.6, "unit": "%"}, {"measurement": "remaining activity at 10 µM", "setting": "MLK2/MAP3K10; [3]", "value": 100, "unit": "%"}]}
